What was measured:
[1] = test system: T1, 64′-OMT; test: [3H]methyl transfer assay, double-reciprocal plots with secondary replots; assay type: biochemical, Coptis japonica; conditions: 30 °C
T1 construct: gene 6-OMT; pET-21d, no vector-derived peptides, E. coli BL21(DE3), purified; subunit ca. 40 kDa, native ca. 63 kDa, dimer

[2] = target: T2, 6-OMT (Coptis japonica, UniProt Q9LEL6); test: LC/MS product analysis; assay type: biochemical; conditions: 1 mM acceptor, 1 mM AdoMet, pH 7.5, 30 °C; presumed 3'-O-methylation; crude E. coli lysate
T2 construct: full length, recombinant in E. coli, crude lysate; dimer

[3] = target: T1, 64′-OMT; test: [3H]methyl transfer assay, inhibition kinetics; assay type: biochemical, Coptis japonica; conditions: competitive with AdoMet; varied substrate AdoMet, methyl acceptor norlaudanosoline; 30 °C

T2 sequence (Q9LEL6 whole entry): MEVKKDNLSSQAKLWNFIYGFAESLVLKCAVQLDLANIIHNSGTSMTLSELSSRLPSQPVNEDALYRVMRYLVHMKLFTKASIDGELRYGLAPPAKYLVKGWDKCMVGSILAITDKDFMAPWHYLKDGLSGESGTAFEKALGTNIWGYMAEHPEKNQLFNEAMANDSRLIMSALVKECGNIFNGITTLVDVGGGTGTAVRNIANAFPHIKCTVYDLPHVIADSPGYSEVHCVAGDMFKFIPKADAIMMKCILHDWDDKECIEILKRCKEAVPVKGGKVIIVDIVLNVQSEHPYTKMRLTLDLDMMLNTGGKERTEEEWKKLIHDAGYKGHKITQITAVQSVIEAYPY

`Oc1ccc(CC2NCCc3cc(O)c(O)cc32)cc1O` (racemic) [(R,S)-norlaudanosoline] was tested, and the Km ([1]; co-substrate [3H]AdoMet varied) was 109 µM.

`COc1cc2c(cc1O)[C@H](Cc1ccc(O)c(O)c1)N(C)CC2` [3′-hydroxy-N-methylcoclaurine] was tested, and the LC/MS product analysis [2] was 6-OMT showed a weak but evident peak that was distinct.

With `Nc1ncnc2c1ncn2[C@@H]1O[C@H](CSCC[C@H](N)C(=O)O)[C@@H](O)[C@H]1O` [AdoHcy] the Ki [3] was 70 µM.

`C[S+](CC[C@H](N)C(=O)O)C[C@H]1O[C@@H](n2cnc3c(N)ncnc32)[C@H](O)[C@@H]1O` (stereo partly shown) [AdoMet] was tested, and the Km ([1]; co-substrate (R,S)-norlaudanosoline varied, labelled compound) was 187 µM.

— publication PMC3066540, “Molecular characterization of O-methyltransferases involved in isoquinoline alkaloid biosynthesis in Coptis japonica” (Proceedings of the Japan Academy. Series B, Physical and …, 2010)
